# Experimental data published in US20230266303A1, “SYSTEM” (GTINVENT LIMITED, priority 2020, published 2023).
# Several values for one entry are separate records, joined by “and”; a condition that tells them apart may be missing. Equal entries are not always repeated.
# Tests used:
# Format in all cases: cell-based, human
# dSH-SY5Y cells = assay: Internalisation of dGAE-488 into cells by confocal microscopy
# Procedure: Undifferentiated SH-SY5Y human neuroblastoma cells were grown in Dulbecco's Modified Eagle Medium/Nutrient Mixture F-12 (DMEM/F-12) supplemented with 10% Foetal Calf Serum (FCS), 1% Penicillin/Streptomycin (P/S) and 1% L-glutamine. For differentiation, SH-SY5Y cells were plated at a density of 50,000 cells per well in 24-well plates or 300,000 cells per well in 6-well plates. For immunofluorescence, cells were plated onto Menzel-Gläser coverslips (Thermo Scientific). For live-cell imaging, cells were plated on 35-mm dishes on a 1.5-mm coverslip (Mattek). On the first day of differentiation, media was replaced with low-serum culture media (DMEM/F-12 containing 1% FCS, 1% P/S and 1% L-glutamine) containing 10 μM all-trans retinoic acid (RA) (Sigma-Aldrich) and cells were incubated for 48 h. On day 3, this process was repeated with fresh RA and cells were incubated for a further 48 h. On day 5, the cells were washed once in serum-free culture media to remove traces of serum. […] Differentiated cells (dSH-SY5Y) were ready to use for experiments on day 7. […]
# (§1) FIJI (https://fiji.sc) imaging processing package (J. Schindelin et al., Nat. Methods, vol. 9, no. 7, pp. 676-682, (2012)) was used for all image analysis. For quantification of fluorescence intensities, images were Z-projected to maximal intensity. […] Area-integrated intensity and mean grey value were measured as well as three selections from around the cell with no fluorescence (background). The corrected total cell fluorescence (CTCF) was then calculated using the equation: […]
# For quantification of internalised dGAE-488, a focal plane from the middle of the cell that contained maximal DAPI fluorescence was selected and subjected to analysis.
# The uptake of soluble and aggregated dGAE into dSH-SY5Y cells was investigated in order to examine whether aggregation state affects the efficiency of internalisation. The labelled dGAE-488 form was used to permit uptake to be visualised and measured having corrected for total cell fluorescence. […]
# [1] = system: endogenous tau in dSH-SY5Y cells; assay: Immunofluorescence of endogenous tau (AT180, AT8, Tau-1) after dGAE-488 exposure; conditions: 1 μM soluble dGAE-488, 24 h
# Procedure: Cell culture medium was aspirated from dSH-SY5Y cells and washed once with PBS. Cells were fixed in 4% (w/v) paraformaldehyde (PFA) in PBS for 15 minutes followed by three washes in PBS. For permeabilization, the cells were incubated in 0.25% (v/v) Triton X-100 in PBS for 10 minutes. Cells were blocked in 2% (w/v) BSA in PBS for 1 h, followed by three washes in PBS. Primary antibodies diluted in 2% (w/v) BSA in PBS and were incubated with the cells for 1 h. The primary antibodies and dilutions used were; AT180 (anti-pT231) (1:250) (Thermo Scientific), AT8 (anti-pS202-T205) (1:500) (Thermo Scientific) and Tau1 (dephosphorylated tau at S195, 198, 199 and 202) (Merck Millipore). Cells were incubated with goat anti-mouse-Alexa Fluor® 594 (1:1000) (Invitrogen™, Thermo Scientific) diluted in 2% (w/v) BSA in PBS for 1 h in the dark. Cells were washed 3 times in PBS between antibody incubations. Cells were mounted onto glass slides using Prolong Gold mounting medium containing 4,6-diamidino-2-phenylindole (DAPI). […]
# as §1
# Therefore, it was further investigated whether internalised soluble dGAE-488 may be capable of altering the aggregation or phosphorylation state of endogenous tau. […] Cells were examined for colocalisation of internalised dGAE-488 and endogenous tau and the fluorescence intensity of labelled tau in the cell body was quantified in individual cells for each antibody. […] We have previously shown that tau dephosphorylated between amino acids 192-204 detected using Tau-1 antibody, is found in the nucleus in dSH-SY5Y cells (Maina et al., Acta Neuropath. Comm, Vol. 6 No. 70, pp 1-13 (2018)).
# [2] = system: acidic vesicles (lysosomes and endosomes) in dSH-SY5Y cells; assay: LysoTracker labelling of acidic organelles and colocalisation with dGAE-488; conditions: soluble dGAE-488, 24 h; buffer 100±5.23%
# Procedure: Cells were plated on 35-mm dishes on a 1.5-mm coverslip (Mattek). Following differentiation, dGAE-488 (5 μM) was added to the cells for 24 h. For labelling lysosomes and endosomes, LysoTracker® red (Life Technologies) was diluted in culture media at a final concentration of 50 nM and incubated for 90 mins before imaging using a Leica SP8 confocal microscope.
# All confocal microscopy imaging was carried using a Leica SP8 confocal microscope. The instrument setting used PMT 3 and PMT Trans channels/lasers and images were acquired with a HC PLAPoCs2 63×/1.40 oil-immersion objective lens. Samples were scanned sequentially to prevent spectral bleed through. All images were collected as Z-stacks for all channels using a step size of 0.5 μm. Five to ten Z-stacks were taken for each sample and each experiment was repeated three times or more. […]
# Intracellular fluorescent punctate particles were observed within the cytoplasm, close to the nucleus after 24 h of exposure of neurons to soluble dGAE-488. […] There was a significant increase in the intensity of the LysoTracker® fluorescence in cells exposed to soluble dGAE-488 compared to buffer-treated control cells (211.9±9.9%, p<0.0001; FIG. 6Ai, Aii).
substance,measurement,setting,value
dGAE-488: dGAE covalently labelled with Alexa Fluor 488,488 fluorescence intensity in the cell body (internalisation),"dSH-SY5Y cells; aggregated (72 h agitated) dGAE-488, 1 μM, 24 h, mean±SEM, b194 prints AU per cell",474.1±95.97 AU and 474±96 AU
same,incubation time at which internalised protein is detected in cells,"dSH-SY5Y cells; soluble form, 5 μM dGAE-488, live confocal imaging t=0 h to 14 h",2 h
same,AT8 (pS202-T205) fluorescence intensity as a percentage of buffer-treated cells,[1]; buffer 100±3.51%,270.7±22.5%
same,AT180 (pT231) fluorescence intensity as a percentage of buffer-treated cells,[1]; buffer 100±5.2%,143.5±7.8%
same,Tau-1 (dephosphorylated tau) fluorescence intensity as a percentage of buffer-treated cells,[1]; buffer 100±7.3%,59.17±3.6%
same,LysoTracker fluorescence intensity as a percentage of buffer-treated cells,[2],211.9±9.89% and 211.9±9.9%
